Patent publication US12312333B2, “SK channel positive allosteric modulators” (Chapman University, priority 2021, dated 2025)
“Also recorded” adds a separate entry of the source.

Test system: Purkinje cells in acute cerebellar slices from SCA2-58Q mouse
Experiment: Cerebellar slice loose-patch recordings of spontaneous PC activity in SCA2-58Q mice
Type: cell-based
Conditions: 10 μM; for effect on PC firing pattern: bursting SCA2-58Q PC; for Average firing frequency (FF) after exposure: 10-s fragment of one PC recording, before application 2o 157.2 Hz, 2q 134.3 Hz
Description: The ISI distribution before and after 2o application, obtained from 10-s fragments of the recording was also analyzed (FIG. 9C). […] The ISI distribution before and after 2q application, obtained from 10-s fragments of the recording was also analyzed (FIG. 10A).
Transgenic SCA2-58Q mice and their wild type (WT) littermates were used in these experiments. SCA2-58Q mice were kindly provided to us by Dr. Stefan Pulst (University of Utah) and were crossed to the FVB background strain. Hemizygous male SCA2-58Q mice were crossed with the WT female mice to generate mixed litters. The genotyping was done via PCR for ATXN2 transgene. The volume of one PCR sample was 25 μl. The PCR mix per one sample contained: 2.5 μl 10× buffer for Taq polymerase, 0.5 μl 10 mM dNTP, 1.5 μl 25 mM MgCl2, 0.125 μl 20 μM primers (forward and reverse), 0.25 μl Taq polymerase, 2 μl DNA, and 18 μl dH2O. For forward and reverse primer sequences, see e.g., Egorova et al., Cell Calcium, 2021 January; 93: 102319. The PCR product has 232 bp. Mice were housed in groups of two to six in one cage in the vivarium. The temperature was kept 22-24° C. including 12 daylight hours. […] All procedures were approved by the Bioethics Committee of the Peter the Great St. Petersburg Polytechnic University at St. Petersburg, Russia, and followed the principles of the European convention (Strasbourg, 1986) and the Declaration of International medical association about humane treatment of animals (Helsinki, 1996).
Recordings of spontaneous PC activity from WT and SCA2-58Q mice at 7-8 months of age were performed. Briefly, the mice were anesthetized with 2,000 mg/kg urethane and transcardially perfused with ice-cold aCSF containing 85 mM NaCl, 24 mM NaHCO3, 25 mM glucose, 2.5 mM KCl, 0.5 mM CaCl2, 4 mM MgCl2, 1 mM NaH2PO4, and 75 mM sucrose. Solutions were equilibrated with carbogen (95% O2/5% CO2). Next, the cerebellum was dissected and 300 μm thick sagittal slices were cut with a VT1200S vibratome (Leica). […] The external bath solution used for the recording was the same as the recovery aCSF, but also contained 100 μM picrotoxin (PTX) and 10 μM 6,7-dinitroquinoxaline-2,3-dione (DNQX), equilibrated with carbogen. All recordings were made within 5-6 hours after cerebellum was dissected. The recording chamber was heated to 35° C. using TC-324C automatic temperature controller (Warner Instruments). Loose-patch recordings were made to evaluate the spontaneous activity of cerebellar PCs. Briefly, 1-3 MΩ glass pipettes were filled with the internal solution containing 140 mM NaCl buffered with 10 mM HEPES pH 7.3 and held at 0 mV. A loose patch (<100 MΩ) configuration was established at the PC soma at the axon hillock area. Spontaneous action potential currents were recorded for 5-60 min from each cell using Axon Multiclamp 700B amplifier (Molecular Devices). The 10 min recordings were analyzed for tonic or burst firing. Cells were characterized as firing tonically if they fired repetitive nonhalting spike trains for 10 min. A cell was characterized as bursting if it had more than 5% of the interspike intervals that fell outside of 3 SD from the mean of all interspike intervals in that cell. The analysis of PC firing was performed using Clampfit 10.2 (Molecular Devices). Data was plotted as the instantaneous firing rate every 100 ms for the entire recording duration.

Compound	effect on PC firing frequency	effect on regularity of PC activity	effect on PC firing pattern	Average firing frequency (FF) after exposure	time after application until cell activity switched to the silent mode
Cc1cc(Nc2ccc(F)c(Cl)c2)nc(-n2nc(C)cc2C)n1 [Compound 2o, N-(3-Chloro-4-fluorophenyl)-2-(3,5-dimethyl-1H-pyrazol-1-yl)-6-methyl-pyrimidin-4-amine]	significantly decreased the firing frequency of the cell	improved the regularity of PC activity	converted bursting SCA2-58Q PC to tonic firing pattern; also recorded: normalize abnormal firing of Purkinje cells; also recorded: converts bursting patterns into tonic activity of PC	84.6 Hz	–
Cc1cc(Nc2cc(Cl)ccc2F)nc(-n2nc(C)cc2C)n1 [Compound 2q, N-(5-Chloro-2-fluorophenyl)-2-(3,5-dimethyl-1H-pyrazol-1-yl)-6-methylpyrimidin-4-amine]	significantly decreased the firing frequency of the cell	improved the regularity of PC activity	converted bursting SCA2-58Q PC to tonic firing pattern; also recorded: normalize abnormal firing of Purkinje cells; also recorded: converts bursting patterns into tonic activity of PC and then into a silent mode	55.9 Hz	8 min
